The results in this text go back to patent publication US20140323488A1, “DISUBSTITUTED TRIAZINE DIMERS FOR TREATMENT AND/OR PREVENTION OF INFECTIOUS DISEASES” (Universiteit Antwerpen, priority 2011, published 2014).

Format in all cases: cell-based
Series [1] has as its system T. rhodesiense (strain STIB-900). Description: In vitro anti-Trypanosoma brucei rhodesiense activity. The settings on record: read-out: T. rhod. IC50. The procedure: In Vitro Anti-Trypanosoma brucei rhodesiense Activity
T. rhodesiense (strain STIB-900) was maintained in HMI-9-medium, supplemented with 10% heat-inactivated FBS. Assays were performed in 96-well microtiter plates, each well containing 10 μL of the extract dilution together with 190 μL of the parasite suspension (2×10^4 parasites/mL). After incubation in a humidified atmosphere (37° C., 5% CO2) for 72 h, resazurin was added for another 6 h and parasite growth was assessed fluorimetrically (λex 550 nm, λem 590 nm). […] Suramin was included as reference drug.

In series [2] the test system is Trypanosoma b. brucei Squib 427. In words: In vitro anti-Trypanosoma brucei brucei activity. The settings on record: read-out: T. bruc. IC50. The procedure: In Vitro Anti-Trypanosoma brucei brucei Activity:
After incubation in a humidified atmosphere (37° C., 5% CO2) for 72 h, resazurin was added for another 24 h and parasite growth was assessed fluorimetrically (λex 550 nm, λem 590 nm). […] Suramin was included as reference drug.

In the next series the test system is P. falciparum. In words: In vitro anti-Plasmodium falciparum activity. The settings on record: read-out: Pf-K1 IC50.
The next series concerns HIV-1 BaL. Description: TZM-bl assay, anti-HIV-1 activity. The settings on record: read-out: EC50 (50% effective concentration), anti-HIV-1 activity; TZM-bl cells. Here is the method:
The JC53-BL cell line, also known as the TZM-bl cell line (NIH AIDS Research and Reference Reagent Program, Germantown, USA), was used for the evaluation of anti-HIV activity. […] The resulting cell suspension was washed with an equivalent amount of TZM-bl medium and subsequently seeded in a T75 culture flask (Greiner Bio-One, Germany) at 10^6 cells in 20 mL medium.
The antiviral activity of the newly designed compounds was measured by pre-incubating ten thousand TZM-bl cells (at 10^5 cells/mL in culture medium supplemented with 30 μg/mL DEAE dextran) in a 96-well plate for 30 minutes at 37° C., 5% CO2 in the presence or absence of serial dilutions of the respective compound. Subsequently, 200 TCID50 of HIV-1 BaL was added to each well and cultures were incubated for 48 hours before quantifying luciferase activity, using a TriStar LB941 luminometer (Berthold Technologies GmbH & Co. KG, Bad Wildbad, Germany). Each condition was evaluated in triplicate wells and in at least two independent experiments. The antiviral activity of the compound was expressed as the percentage of viral inhibition compared to the untreated controls and subsequently plotted against the compound concentration.

Series [3] has as its system Leishmania infantum MHOM/MA (BE)/67. In words: In vitro anti-Leishmania infantum activity. The following applies: read-out: L. inf. IC50.
Method: In Vitro Anti-Leishmania infantum Activity
Leishmania infantum MHOM/MA (BE)/67 was maintained in the golden hamster and spleen amastigotes were collected for preparing infection inocula. Primary peritoneal mouse macrophages were used as host cells and collected 48 h after peritoneal stimulation with a 2% potato starch suspension. […] After incubation for 120 h in a humidified atmosphere (37° C., 5% CO2), total parasite burdens were microscopically assessed after Giemsa staining. The results were expressed as % reduction in parasite burden compared to untreated control wells and IC50 values were calculated. The extracts were tested using five fourfold dilutions starting with 64 μg/mL.
For series [4], the system named is Human lung fibroblast MRC-5SV2 cells. Description: Cytotoxicity assay on MRC-5SV2 cells (resazurin). Here is the method:
Assays were performed in 96-well microtiter plates, each well containing 1×10^4 cells. […] After incubation for 72 h in a humidified atmosphere (37° C., 5% CO2) and addition of resazurin, the cell viability was assessed fluorimetrically (λex 550 nm, λem 590 nm). The results were expressed as % reduction in cell growth/viability compared to untreated control wells and IC50 values were determined. Tamoxifen was included as reference drug.

For another series, the system named is TZM-bl cells. Description: WST-1 cytotoxicity assay. The settings on record: read-out: CC50 (50% cytotoxic concentration). From the text: The Water Soluble Tetrazolium-1 (WST-1) Cell Proliferation Assay is a colorimetric assay for the measurement of cell proliferation and viability. The assay is based on the cleavage of the tetrazolium salt WST-1 (4-[3-(4-iodophenyl)-2-(4-nitrophenyl)-2H-5-tetrazolio]-1,3-benzene disulfonate) to a formazan dye by a complex cellular mechanism. This bioreduction is largely dependent on the glycolytic production of NAD(P)H in viable cells. Therefore, the amount of formazan dye formed correlates directly to the number of viable cells in the culture, and can be quantified by measuring the absorbance at 450 nm in a multiwell plate reader. The greater the number of viable cells, the greater the amount of formazan dye produced following the addition of WST-1. Cytotoxicity of each compound was evaluated using this WST-1 viability assay, according to the manufacturer's instructions (Roche, Vilvoorde, Belgium).
Briefly, ten thousand TZM-bl cells were seeded in a 96-well plate and cultured for 2 days in the presence of a serial dilution of compound. After this 48 h exposure, Cell Proliferation Reagent, WST-1, was added and absorbance at 450 nm was quantified after 90 min using a microplate reader (BioRad, Tokio, Japan). Each compound was tested in three replicate wells and in at least two independent experiments.

The target of series [5] is Trypanosoma cruzi, Tulahuen CL2, β galactosidase strain. In words: In vitro anti-Trypanosoma cruzi activity. The following applies: read-out: T. cruz. IC50. Here is the method:
In Vitro Anti-Trypanosoma cruzi Activity
All cultures and assays were conducted under a humidified atmosphere (37° C., 5% CO2). […] The change in color was measured spectrophotometrically at 540 nm after 4 h at 37° C. […] Benznidazole was included as reference drug.

Each structure is given as a SMILES string.

Method for P. falciparum: In Vitro Anti-Plasmodium falciparum Activity
All cultures and assays were conducted under a humidified atmosphere (37° C., 4% CO2, 3% O2 and 93% N2) with the assay being an adaptation of the procedure described by Desjardins et al. (12). Assays were performed in 96-well microtiter plates, each well containing 10 μL of the watery extract dilutions together with 190 μL of the malaria parasite inoculum (1% parasitemia, 2% hematocrit). After incubation for 72 h at 37° C., the plates were frozen and stored at −20° C. Upon thawing, 20 μL of each well was transferred into another plate together with 100 μL Malstat® reagent and 20 μL of a 1/1 mixture of PES (phenazine ethosulphate, 2 mg/mL) and NBT (Nitro Blue Tetrazolium Grade III, 0.1 mg/ml). […] The results were expressed as % reduction in parasitemia compared to control wells. The extracts were tested using five 4-fold dilutions starting with 64 μg/mL. Chloroquine was included as reference drug.

For `Cc1cc(C)c(Nc2nc(Nc3ccc(C#N)cc3)nc(Nc3ccc(Nc4nc(Nc5ccc(C#N)cc5)nc(Nc5c(C)cc(C)cc5C)n4)cc3)n2)c(C)c1` [T12, 4,4′-((6,6′-(1,4-phenylenebis(azanediyl))bis(4-(mesitylamino)-1,3,5-triazine-6,2-diyl))bis(azanediyl))dibenzonitrile], the IC50 is 20 nM in series [1]; 530 nM in series [2]; above 64000 nM in the series with P. falciparum; above 64000 nM in series [3]; above 64000 nM in series [4] (human cell line MRC5); above 64000 nM in series [5]. The EC50 in the series on HIV-1 BaL turned out to be 167 nM. Further, in series [4], the “cytotoxicity in comparison with monomer I5” value is given as “no cytotoxicity”. The CC50 in the series on TZM-bl cells was above 100000 nM.
